# Experimental data: PubChem BioAssay (NCI)
#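 All cell lines were grown in 96-well plates and treated with compound for 48 hours. Abbreviation: GI50, concentration required for 50% inhibition of growth. At the TGI there is no net growth.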
# Experiments:
# Assay in all cases: inhibition of tumour cell growth, NCI panel, 48 h
# M14 melanoma = test system: M14 melanoma
# UO-31 renal = test system: UO-31 renal
# HOP-92 NSCLC = test system: HOP-92 NSCLC
# SK-OV-3 ovarian = test system: SK-OV-3 ovarian
# OVCAR-8 ovarian = test system: OVCAR-8 ovarian
# U251 CNS = test system: U251 CNS
# HT29 colon = test system: HT29 colon
# MOLT-4 leukemia = test system: MOLT-4 leukemia
# SF-295 CNS = test system: SF-295 CNS
# SK-MEL-5 melanoma = test system: SK-MEL-5 melanoma
SMILES,GI50 (M14 melanoma) [µM],TGI (M14 melanoma) [µM],GI50 (UO-31 renal) [µM],TGI (UO-31 renal) [µM],GI50 (HOP-92 NSCLC) [µM],TGI (HOP-92 NSCLC) [µM],GI50 (SK-OV-3 ovarian) [µM],TGI (SK-OV-3 ovarian) [µM],GI50 (OVCAR-8 ovarian) [µM],TGI (OVCAR-8 ovarian) [µM],GI50 (U251 CNS) [µM],TGI (U251 CNS) [µM],GI50 (HT29 colon) [µM],TGI (HT29 colon) [µM],GI50 (MOLT-4 leukemia) [µM],TGI (MOLT-4 leukemia) [µM],GI50 (SF-295 CNS) [µM],TGI (SF-295 CNS) [µM],GI50 (SK-MEL-5 melanoma) [µM],TGI (SK-MEL-5 melanoma) [µM]
CCOC(=O)C(=Cc1cccc(Cl)c1)C(=O)OCC,2,4.56,1.84,4.12,1.74,4.49,10.6,22.4,3.37,12.8,4.47,15.9,2.39,5.57,3.08,9.81,3.61,13.4,1.83,3.35
O=C(O)CSc1n[nH]c(-c2ccccc2)n1,–,> 100,–,> 100,–,–,–,> 100,–,> 100,–,> 100,–,> 100,–,> 100,–,> 100,–,> 100
COc1ccc2[nH]cc(-c3nc(-c4c[nH]c5ncccc45)cs3)c2c1,2.99,> 100,1.41,> 100,2.13,8.12,4.41,> 100,4.7,> 100,3.83,> 100,–,–,3.13,> 100,2.66,6.87,2.87,> 100
Cc1ccc(Cl)cc1Nc1nc(C(F)(F)F)ccc1C(=O)N1CCN(c2cccc(Cl)c2)CC1,> 100,> 100,24.8,> 100,–,–,> 100,> 100,> 100,> 100,> 100,> 100,> 100,> 100,–,> 100,> 100,> 100,> 100,> 100
CN(C)c1c([O-])c(=[N+](C)C)c1=O,–,> 100,–,> 100,–,> 100,–,> 100,–,> 100,–,> 100,–,> 100,–,> 100,–,> 100,–,–
Cc1ccc(Cn2c(C)nc3c2C(=O)c2ccccc2C3=O)cc1,–,> 100,–,> 100,–,–,–,45.6,–,28,–,22.8,–,> 100,–,> 100,–,42.9,–,19.5
C[C@H]1NC(=O)C2CCCCN2C(=O)CN(C)C(=O)CNC(=O)C2CCCCN2C(=O)[C@@H](NC(=O)c2nc3ccccc3cc2O)[C@@H](C)NC(=O)C2CCCCN2C(=O)CN(C)C(=O)CNC(=O)[C@@H]2CCCCN2C(=O)C1NC(=O)c1nc2ccccc2cc1O (some centres undefined),–,1.27,–,0.984,–,–,–,> 100,–,> 100,–,36.6,–,> 100,–,7.03,–,4.8,–,–
CCC1C2C=CC(CC2)N1S(=O)(=O)c1ccc(C)cc1 (centres undefined),–,> 100,–,39.2,–,–,–,89.6,–,–,–,–,–,42.1,–,> 100,–,> 100,–,36.1
CC1=CC(=O)[C@@H](O)[C@]2(C)[C@H]3[C@@]4(O)OC[C@]35[C@H]([C@@H](C)[C@H]4O)[C@@H](O)C(=O)O[C@@H]5C[C@@H]12,–,1.04,–,6.71,–,2.51,–,> 20.5,–,5.82,–,0.379,–,–,–,–,–,3.7,–,0.369
CCc1cccc(C)c1NC(=O)C(=O)Cc1nc2ccccc2o1,–,> 100,–,> 100,–,> 100,–,> 100,–,> 100,–,> 100,–,> 100,–,> 100,–,> 100,–,–
O=C(CSc1nnc(-c2ccc(N=Cc3ccc(Cl)cc3)cc2)o1)Nc1ccc(Cl)cc1,–,> 100,–,> 100,–,–,–,> 100,–,> 100,–,> 100,–,> 100,–,> 100,–,> 100,–,> 100
CCOc1ccc(N2C(=O)/C(=C/c3ccc(N(CCC#N)CCC#N)cc3)N=C2c2cc([N+](=O)[O-])ccc2Cl)cc1,–,61.3,–,> 100,–,–,–,> 100,–,> 100,–,> 100,–,–,–,13.8,–,83.7,–,34.6
CCOc1ccc2nc(S/C(=C/C=C(C#N)C#N)c3ccc(C)cc3)sc2c1,35.8,> 100,36.2,> 100,–,–,> 100,> 100,32.8,> 100,29.4,> 100,4.71,> 100,3.03,8.5,22.8,60.8,22.1,57.4
O=C(O)[C@H](NS(=O)(=O)c1ccc2ccccc2c1)c1ccccc1,–,> 100,–,> 100,–,> 100,–,> 100,–,–,–,> 100,–,> 100,–,> 100,–,–,–,–
CC(C)=CCc1cc(O)cc2c1OC(C=C(C)C)C1=C2C(=O)C2=C(NCCS2(=O)=O)C1=O (centres undefined),0.646,2.69,2.03,6.05,5.73,15.9,3.8,10.4,3.24,8.71,2.79,5.25,1.95,7.24,2.23,7.19,–,–,0.751,2.88
COc1ccc2oc(-c3cccnc3)cc(=O)c2c1,–,> 100,–,69.2,–,> 100,–,–,–,–,–,> 100,–,> 100,–,> 100,–,> 100,–,–
N#C/C=C(\c1ccc([N+](=O)[O-])cc1)n1nnc2cc(Cl)c(Cl)cc21,1.86,4.5,1.11,2.32,1.78,4.28,5.1,18.5,3.02,12,1.71,3.37,2.05,4.23,2.71,> 100,–,–,1.83,3.6
